Tests used:
[1] = target: T1, Ascaris suum succinate-ubiquinone reductase (mitochondrial complex II) (Ascaris suum, UniProt O44074+P92506+P92507); assay: In vitro measurement of inhibitory activity on Ascaris suum succinate-ubiquinone reductase (mitochondrial complex II); format: biochemical; settings: mitochondria from adult Ascaris suum muscle, UQ2 60 μM, succinate 10 mM, 25° C.
T1 construct: from tissue; host or cells: mitochondria from adult Ascaris suum muscle
Method: In Vitro Measurement of Inhibitory Activity on Ascaris suum Succinate-Ubiquinone Reductase (Mitochondrial Complex II)
To a solution containing 50 mM potassium phosphate (pH 7.4) and 0.1% (w/v) sucrose monolaurate, an electron acceptor ubiquinone-2 (UQ2) was added at a final concentration of 60 μM, and the mixture was allowed to stand at 25° C. for 20 minutes. To this, potassium cyanide (final concentration: 2 mM) and mitochondria prepared from adult Ascaris suum muscle were added, and thorough mixing was done. To aliquots of the mixture, an inhibitor to be tested was added at various concentrations, and the mixtures were allowed to stand at 25° C. for 3 minutes. The enzymatic reaction was initiated by addition of potassium succinate (final concentration: 10 mM). The enzymatic activity was calculated based on the measurement of change in the absorbance at 278 nm of UQ2 (e=1.5×10^4 M^−1 cm^−1), and IC50 was determined from the plot of the inhibition percentage against the inhibitor concentration.

[2] = tested on: Haemonchus contortus L1-stage larvae; assay: In vivo activity test on Haemonchus nematode (motor ability of L1-stage larvae in 96-well plate); settings: 27° C./95% RH, 4 days
Method: In Vivo Activity Test on Haemonchus Nematode In a 96-well plate, twenty L1-stage larvae (Haemonchus contortus) per well were maintained so that they could freely move, and solutions of compounds of the present invention dissolved at predetermined concentrations in DMSO (the final concentration of DMSO was 0.78% (v/v)) were added at 0.5 Ill/well each. The plate was kept under the conditions of 27° C./95% RH for 4 days. The motor ability of the larvae was examined and the concentration required for 50% inhibition of the motor ability (EC50) was determined. Based on the EC50 value, the activity against the Haemonchus nematode was graded according to the criterion shown below. Grading Criterion A: The EC50 value is lower than 0.5 ppm. B: The EC50 value is 0.5 ppm or higher but lower than 5 ppm. C: The EC50 value is 5 ppm or higher.

T1 sequence (O44074 22-282): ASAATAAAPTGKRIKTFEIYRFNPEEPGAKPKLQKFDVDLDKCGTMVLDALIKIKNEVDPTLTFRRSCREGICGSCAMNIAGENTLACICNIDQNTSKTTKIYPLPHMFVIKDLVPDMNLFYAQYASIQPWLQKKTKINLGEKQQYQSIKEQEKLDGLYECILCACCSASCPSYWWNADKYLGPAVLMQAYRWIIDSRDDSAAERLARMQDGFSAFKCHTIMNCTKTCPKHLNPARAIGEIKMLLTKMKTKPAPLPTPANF
T1 sequence (P92506 32-188): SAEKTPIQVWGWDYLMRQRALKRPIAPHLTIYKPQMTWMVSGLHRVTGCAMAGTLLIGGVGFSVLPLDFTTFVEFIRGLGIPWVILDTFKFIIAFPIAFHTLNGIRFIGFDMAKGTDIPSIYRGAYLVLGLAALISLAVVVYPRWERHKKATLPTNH
T1 sequence (P92507 26-156): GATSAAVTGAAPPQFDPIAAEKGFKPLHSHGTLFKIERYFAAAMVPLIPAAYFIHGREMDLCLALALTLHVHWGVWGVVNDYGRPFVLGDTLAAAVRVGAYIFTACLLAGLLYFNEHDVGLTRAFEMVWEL
T1 sequence (Q33862 19-645 partner): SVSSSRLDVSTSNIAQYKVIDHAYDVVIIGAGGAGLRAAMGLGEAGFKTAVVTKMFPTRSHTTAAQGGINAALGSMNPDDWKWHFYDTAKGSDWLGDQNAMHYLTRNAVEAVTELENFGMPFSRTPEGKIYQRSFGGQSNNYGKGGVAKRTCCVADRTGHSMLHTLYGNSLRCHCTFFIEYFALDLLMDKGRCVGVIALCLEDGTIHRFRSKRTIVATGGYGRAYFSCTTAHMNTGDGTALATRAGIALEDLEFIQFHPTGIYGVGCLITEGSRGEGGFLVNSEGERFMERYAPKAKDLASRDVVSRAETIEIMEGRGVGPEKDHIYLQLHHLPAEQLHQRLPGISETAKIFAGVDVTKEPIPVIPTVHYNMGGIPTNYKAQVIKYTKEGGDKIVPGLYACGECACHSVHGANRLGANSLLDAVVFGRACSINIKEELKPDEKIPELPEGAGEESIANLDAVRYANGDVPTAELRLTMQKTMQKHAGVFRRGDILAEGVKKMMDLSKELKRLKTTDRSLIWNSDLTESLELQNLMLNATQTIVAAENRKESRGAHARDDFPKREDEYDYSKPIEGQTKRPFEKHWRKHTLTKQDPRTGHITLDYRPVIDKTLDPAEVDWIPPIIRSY

O=C(NCCc1ncc(C(F)(F)F)cc1Cl)c1ccccc1Br [Compound 35]
IC50 [1]: 2.3 nM

O=C(NCCc1ccc(Oc2ncc(C(F)(F)F)cc2Cl)cc1Cl)c1ccccc1C(F)(F)F [Compound 26]
Grade (EC50, concentration required for 50% inhibition of the motor ability of larvae) [2]: A (The EC50 value is lower than 0.5 ppm.) | IC50 [1]: 1.4 nM

Cc1ccccc1C(=O)N[C@@H](C)Cn1nc(Cl)cc1C(F)(F)F [Compound 10]
Grade (EC50, concentration required for 50% inhibition of the motor ability of larvae) [2]: B (The EC50 value is 0.5 ppm or higher but lower than 5 ppm.)

C[C@@H](Cn1nc(C(F)(F)F)cc1Cl)NC(=O)c1ccccc1C(F)(F)F [Compound 2]
Grade (EC50, concentration required for 50% inhibition of the motor ability of larvae) [2]: A (The EC50 value is lower than 0.5 ppm.)

C[C@@H](Cn1nc(Cl)c(Br)c1Cl)NC(=O)c1ccccc1C(F)(F)F [Compound 3]
Grade (EC50, concentration required for 50% inhibition of the motor ability of larvae) [2]: A (The EC50 value is lower than 0.5 ppm.) | IC50 [1]: 1.4 nM

C[C@@H](Cn1nc(C(F)(F)F)cc1Br)NC(=O)c1ccccc1C(F)(F)F [Compound 5]
Grade (EC50, concentration required for 50% inhibition of the motor ability of larvae) [2]: A (The EC50 value is lower than 0.5 ppm.) | IC50 [1]: 5.8 nM

C[C@@H](Cn1nc(Cl)c(Br)c1C(F)(F)F)NC(=O)c1ccccc1C(F)(F)F [Compound 7]
Grade (EC50, concentration required for 50% inhibition of the motor ability of larvae) [2]: A (The EC50 value is lower than 0.5 ppm.) | IC50 [1]: 1.7 nM

O=C(NCCc1ncc(C(F)(F)F)cc1Cl)c1c(Cl)cccc1Cl [Compound 40]
IC50 [1]: 39 nM

C[S+]([O-])c1ccc(CCNC(=O)c2ccccc2C(F)(F)F)c(Cl)c1 (centres unmarked) [Compound 27]
Grade (EC50, concentration required for 50% inhibition of the motor ability of larvae) [2]: B (The EC50 value is 0.5 ppm or higher but lower than 5 ppm.) | IC50 [1]: 260 nM

C[C@@H](Cn1nc(Cl)cc1C(F)(F)F)NC(=O)c1ccccc1C(F)(F)F [Compound 1]
Grade (EC50, concentration required for 50% inhibition of the motor ability of larvae) [2]: A (The EC50 value is lower than 0.5 ppm.) | IC50 [1]: 5.2 nM

CSc1cc(C(F)(F)F)n(C[C@H](C)NC(=O)c2ccccc2C(F)(F)F)n1 [Compound 18]
IC50 [1]: 3.1 nM

O=C(NCCc1ccc(Cl)cc1Cl)c1ccccc1SC(F)F [Compound 31]
IC50 [1]: 8.2 nM

O=C(NCCc1ncc(C(F)(F)F)cc1Cl)c1ccccc1Cl [Compound 34]
IC50 [1]: 2.1 nM

O=C(NCCNc1ncc(C(F)(F)F)cc1Cl)c1ccccc1C(F)(F)F [Compound 24]
Grade (EC50, concentration required for 50% inhibition of the motor ability of larvae) [2]: A (The EC50 value is lower than 0.5 ppm.) | IC50 [1]: 11 nM

CSc1ccccc1C(=O)NCCc1ccc(Cl)cc1Cl [Compound 28]
Grade (EC50, concentration required for 50% inhibition of the motor ability of larvae) [2]: A (The EC50 value is lower than 0.5 ppm.) | IC50 [1]: 1.2 nM

C[C@@H](Cn1nc(C(F)(F)F)c(Cl)c1Cl)NC(=O)c1ccccc1C(F)(F)F [Compound 4]
Grade (EC50, concentration required for 50% inhibition of the motor ability of larvae) [2]: A (The EC50 value is lower than 0.5 ppm.) | IC50 [1]: 1.9 nM

O=C(NCCc1ncc(C(F)(F)F)cc1Cl)c1c(F)cccc1F [Compound 39]
IC50 [1]: 5.3 nM

C[C@@H](COc1ncc(C(F)(F)F)cc1Cl)NC(=O)c1ccccc1C(F)(F)F [Compound 23]
Grade (EC50, concentration required for 50% inhibition of the motor ability of larvae) [2]: A (The EC50 value is lower than 0.5 ppm.) | IC50 [1]: 1.8 nM

O=C(NCCc1ccc(Cl)cc1Cl)c1ccccc1OC(F)(F)F [Compound 32]
Grade (EC50, concentration required for 50% inhibition of the motor ability of larvae) [2]: A (The EC50 value is lower than 0.5 ppm.) | IC50 [1]: 48 nM

Cc1ccccc1C(=O)NCCc1ncc(C(F)(F)F)cc1Cl [Compound 37]
IC50 [1]: 2.6 nM

Cc1ccccc1C(=O)N[C@@H](C)Cn1nc(Cl)c(Br)c1C(F)(F)F [Compound 6]
IC50 [1]: 2 nM

O=C(NCCc1ncc(C(F)(F)F)cc1Cl)c1ccccc1I [Compound 36]
Grade (EC50, concentration required for 50% inhibition of the motor ability of larvae) [2]: A (The EC50 value is lower than 0.5 ppm.) | IC50 [1]: 1.2 nM

C[C@@H](Cn1nc(Br)c(Br)c1Br)NC(=O)c1ccccc1C(F)(F)F [Compound 14]
IC50 [1]: 1.8 nM

Source: US9550749B2, “Endoparasite control agent and method for using the same” (The University of Tokyo, priority 2012, dated 2017)
